Experimental data: patent publication US7138403B2, “2,4,5-trisubstituted thiazolyl derivatives and their antiinflammatory activity” (Janssen Pharmaceutica N.V., priority 2001, dated 2006)

test system: IL-12p70 production; assay: In vitro inhibition of IL-12p70 production in human blood (LPS-stimulated whole blood, ELISA); format: cell-based; settings: test dose 1 × 10^−8 M, LPS 100 ng/ml, 24 hours, read-out: % inhib. IL-12 (p70)
Procedure: In Vitro Inhibition of IL-12p70 Production in Human Blood Human Whole Blood Stimulation Peripheral blood from healthy donors was drawn into heparinized syringes (12.5 U heparin/ml). Blood samples were three-fold diluted in RMPI 1640 medium (Life Technologies, Belgium) supplemented with 2 mM L-glutamine, 100 U/ml penicillin and 100 μg/ml streptomycin, and 200 μl fractions were distributed in 96-well plates (Nunc, Roskilde, Denmark). Blood samples were preincubated (5 minutes at 37° C.) in a humidified 5% CO2-atmosphere with 25 μl of drug solvent (final concentration 0.1% dimethylsulfoxide in RPMI 1640) or with 25 μl of an appropriate dose of test compound before being stimulated by the addition of 25 μl of lipopolysaccharide at a final concentration of 100 ng/ml. After 24 hours, cell-free supernatant fluids were collected by centrifugation and stored at −20° C. until tested for the presence of IL-12. Cytokine Measurements Cytokine protein concentrations were determined by sandwich ELISA as described in Van Wauwe et al. (1996, Inflamm Res, 45,357–363). The quantikine HS kit (R &D HS120, Abingdon, United Kingdom) was used to quantify the cytokine levels (IL12 p70) in the supernatant

| Compound | inhibition at 0.01 µM [%] |
| --- | --- |
| Cc1nc(-c2ccc(C(F)(F)F)cc2)sc1-c1ccnc(N)n1 [Compound 9] | 92 |
| Cc1nccc(-c2sc(-c3ccc(C(F)(F)F)cc3)nc2C)n1 [Compound 35] | 94 |
| Cc1nc(-c2ccc(C(F)(F)F)cc2)sc1-c1ccnc(N(CCO)CCO)n1 [Compound 70] | 90 |
| Cc1nc(-c2ccc(C(F)(F)F)cc2)sc1-c1ncnc(N)n1 [Compound 81] | 94 |
| Cc1nc(-c2ccc(C(F)(F)F)cc2)sc1-c1ccnc(NCCC(=O)O)n1 [Compound 84] | 95 |

test system: IL-12p40 production; assay: In vitro inhibition of IL-12p40 production in human blood (LPS-stimulated whole blood, ELISA); format: cell-based; settings: test dose 1 × 10^−6 M, LPS 100 ng/ml, 24 hours, read-out: % inhib. IL-12 (p40)
Procedure: In Vitro Inhibition of IL-12p40 Production in Human Blood
Human Whole Blood Stimulation
Peripheral blood from healthy male donors was drawn into heparinized syringes (12.5 U heparin/ml). Blood samples were three-fold diluted in RMPI 1640 medium (Life Technologies, Belgium) supplemented with 2 mM L-glutamine, 100 U/ml penicillin and 100 μg/ml streptomycin, and 300 μl fractions were distributed in 24-well multidisc plates (Nunc, Roskilde, Denmark). Blood samples were preincubated (60 minutes at 37° C.) in a humidified 6% CO2-atmosphere with 100 µl of drug solvent (final concentration 0.02% dimethylsulfoxide in RPMI 1640) or with 100 μl of an appropriate dose of test compound before being stimulated by the addition of 100 μl of lipopolysaccharide at a final concentration of 100 ng/ml. After 24 hours, cell-free supernatant fluids were collected by centrifugation and stored at −20° C. until tested for the presence of IL-12 p40.
Cytokine protein concentrations were determined by sandwich ELISA as described in Van Wauwe et al. (1996, Inflamm Res, 45, 357–363). Murine monoclonals used as capture antibodies to human cytokines were obtained from R&D Systems (Abingdon, United Kingdom) and code named MAB210 and MAB611 for TNF-α and IL-12 p40 respectively. Biotinylated goat polyclonal antibodies used to detect human cytokines were from R&D Systems (BAF210, BAF219). Cytokine levels were calculated from standard curves using recombinant cytokines supplied by R&D Systems.

| Compound | inhibition at 1 µM [%] |
| --- | --- |
| Cc1nc(-c2ccc(C(F)(F)F)cc2)sc1-c1ccnc(N)n1 [Compound 9] | 57 |
| Cc1nc(-c2ccc(C(F)(F)F)cc2)sc1-c1ccnc(NCCCN)n1 [Compound 38] | 93 |
| Cc1nc(-c2ccc(C(F)(F)F)cc2)sc1-c1ccnc(C#N)n1 [Compound 40] | 93 |
| Cc1nc(-c2ccc(C(F)(F)F)cc2)sc1-c1nc(N)ncc1F [Compound 49] | 92 |
| Cc1nc(-c2ccc(C(F)(F)F)cc2)sc1-c1cc(O)nc(N)n1 [Compound 80] | 49 |
| COc1nccc(-c2sc(-c3ccc(C(F)(F)F)cc3)nc2C)n1 [Compound 83] | 59 |
| Cc1nc(-c2ccc(C(F)(F)F)cc2)sc1-c1ccnc(NCC(=O)O)n1 [Compound 90] | 56 |
